Like-named read-outs stand apart in the source and are kept apart here.
How the values were obtained:
[1] = target: BRM (Homo sapiens, UniProt P51531); assay: ATPase catalytic activity assay of BRM (ADP-Glo); assay type: biochemical; details: for IC50: read-out: BRM IC50 (μM)*
How it was run: (§1)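 ATPase activity of BRG-1 or BRM was read by ADP-Glo. Residual ATP was depleted (40 min, room temperature), then ADP was converted to ATP (60 min, room temperature) and measured as luciferase luminescence.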

[2] = target: BRG-1 (Homo sapiens, UniProt P51532); assay: ATPase catalytic activity assay of BRG-1 (ADP-Glo); assay type: biochemical; details: ATPase catalytic activity, ADP-Glo; for IC50: read-out: BRG1 IC50 (μM)*; for Emax: read-out: BRG1 Max % Inhibition
How it was run: as §1

BRM, sequence (P51531 whole entry): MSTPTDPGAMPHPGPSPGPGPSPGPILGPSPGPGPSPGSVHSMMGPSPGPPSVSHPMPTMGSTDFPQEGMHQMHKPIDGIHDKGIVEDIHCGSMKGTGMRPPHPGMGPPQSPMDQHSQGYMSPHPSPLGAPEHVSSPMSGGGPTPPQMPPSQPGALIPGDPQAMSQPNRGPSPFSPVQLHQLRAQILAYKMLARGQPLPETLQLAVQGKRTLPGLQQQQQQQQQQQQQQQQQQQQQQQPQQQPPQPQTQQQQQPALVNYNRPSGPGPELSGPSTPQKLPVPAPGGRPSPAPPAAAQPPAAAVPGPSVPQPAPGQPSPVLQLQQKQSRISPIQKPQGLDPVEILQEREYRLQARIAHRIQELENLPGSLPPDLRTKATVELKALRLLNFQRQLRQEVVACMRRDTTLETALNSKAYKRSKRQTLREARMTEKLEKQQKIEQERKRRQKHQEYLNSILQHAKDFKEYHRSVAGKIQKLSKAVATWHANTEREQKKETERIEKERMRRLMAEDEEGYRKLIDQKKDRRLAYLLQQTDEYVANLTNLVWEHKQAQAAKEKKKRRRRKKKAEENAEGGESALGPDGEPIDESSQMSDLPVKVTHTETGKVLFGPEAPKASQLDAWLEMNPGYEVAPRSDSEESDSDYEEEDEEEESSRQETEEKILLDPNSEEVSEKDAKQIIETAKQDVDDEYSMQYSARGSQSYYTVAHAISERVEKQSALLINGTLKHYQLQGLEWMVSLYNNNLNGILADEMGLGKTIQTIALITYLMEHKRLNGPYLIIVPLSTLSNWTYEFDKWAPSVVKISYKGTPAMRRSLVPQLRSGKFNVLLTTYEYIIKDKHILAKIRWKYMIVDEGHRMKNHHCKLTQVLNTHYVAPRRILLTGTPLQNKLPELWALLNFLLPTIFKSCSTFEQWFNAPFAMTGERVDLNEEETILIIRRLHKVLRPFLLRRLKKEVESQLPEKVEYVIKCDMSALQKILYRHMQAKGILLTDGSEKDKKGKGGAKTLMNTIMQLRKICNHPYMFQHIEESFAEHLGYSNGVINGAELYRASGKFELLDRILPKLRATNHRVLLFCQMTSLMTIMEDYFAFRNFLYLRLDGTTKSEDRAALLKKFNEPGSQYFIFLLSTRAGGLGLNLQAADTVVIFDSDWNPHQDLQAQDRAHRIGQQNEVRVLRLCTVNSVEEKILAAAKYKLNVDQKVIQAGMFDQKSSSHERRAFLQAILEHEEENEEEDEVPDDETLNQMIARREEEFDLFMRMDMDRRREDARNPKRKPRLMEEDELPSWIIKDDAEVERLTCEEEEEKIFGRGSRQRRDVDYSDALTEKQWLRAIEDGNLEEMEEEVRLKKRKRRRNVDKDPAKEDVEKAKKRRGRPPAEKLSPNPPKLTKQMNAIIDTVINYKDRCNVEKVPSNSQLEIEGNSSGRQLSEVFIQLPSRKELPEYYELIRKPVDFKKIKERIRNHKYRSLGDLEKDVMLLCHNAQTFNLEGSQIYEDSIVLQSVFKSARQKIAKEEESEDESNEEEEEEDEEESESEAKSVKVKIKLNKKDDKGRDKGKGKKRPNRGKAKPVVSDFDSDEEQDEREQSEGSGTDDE
BRG-1, sequence (P51532 whole entry): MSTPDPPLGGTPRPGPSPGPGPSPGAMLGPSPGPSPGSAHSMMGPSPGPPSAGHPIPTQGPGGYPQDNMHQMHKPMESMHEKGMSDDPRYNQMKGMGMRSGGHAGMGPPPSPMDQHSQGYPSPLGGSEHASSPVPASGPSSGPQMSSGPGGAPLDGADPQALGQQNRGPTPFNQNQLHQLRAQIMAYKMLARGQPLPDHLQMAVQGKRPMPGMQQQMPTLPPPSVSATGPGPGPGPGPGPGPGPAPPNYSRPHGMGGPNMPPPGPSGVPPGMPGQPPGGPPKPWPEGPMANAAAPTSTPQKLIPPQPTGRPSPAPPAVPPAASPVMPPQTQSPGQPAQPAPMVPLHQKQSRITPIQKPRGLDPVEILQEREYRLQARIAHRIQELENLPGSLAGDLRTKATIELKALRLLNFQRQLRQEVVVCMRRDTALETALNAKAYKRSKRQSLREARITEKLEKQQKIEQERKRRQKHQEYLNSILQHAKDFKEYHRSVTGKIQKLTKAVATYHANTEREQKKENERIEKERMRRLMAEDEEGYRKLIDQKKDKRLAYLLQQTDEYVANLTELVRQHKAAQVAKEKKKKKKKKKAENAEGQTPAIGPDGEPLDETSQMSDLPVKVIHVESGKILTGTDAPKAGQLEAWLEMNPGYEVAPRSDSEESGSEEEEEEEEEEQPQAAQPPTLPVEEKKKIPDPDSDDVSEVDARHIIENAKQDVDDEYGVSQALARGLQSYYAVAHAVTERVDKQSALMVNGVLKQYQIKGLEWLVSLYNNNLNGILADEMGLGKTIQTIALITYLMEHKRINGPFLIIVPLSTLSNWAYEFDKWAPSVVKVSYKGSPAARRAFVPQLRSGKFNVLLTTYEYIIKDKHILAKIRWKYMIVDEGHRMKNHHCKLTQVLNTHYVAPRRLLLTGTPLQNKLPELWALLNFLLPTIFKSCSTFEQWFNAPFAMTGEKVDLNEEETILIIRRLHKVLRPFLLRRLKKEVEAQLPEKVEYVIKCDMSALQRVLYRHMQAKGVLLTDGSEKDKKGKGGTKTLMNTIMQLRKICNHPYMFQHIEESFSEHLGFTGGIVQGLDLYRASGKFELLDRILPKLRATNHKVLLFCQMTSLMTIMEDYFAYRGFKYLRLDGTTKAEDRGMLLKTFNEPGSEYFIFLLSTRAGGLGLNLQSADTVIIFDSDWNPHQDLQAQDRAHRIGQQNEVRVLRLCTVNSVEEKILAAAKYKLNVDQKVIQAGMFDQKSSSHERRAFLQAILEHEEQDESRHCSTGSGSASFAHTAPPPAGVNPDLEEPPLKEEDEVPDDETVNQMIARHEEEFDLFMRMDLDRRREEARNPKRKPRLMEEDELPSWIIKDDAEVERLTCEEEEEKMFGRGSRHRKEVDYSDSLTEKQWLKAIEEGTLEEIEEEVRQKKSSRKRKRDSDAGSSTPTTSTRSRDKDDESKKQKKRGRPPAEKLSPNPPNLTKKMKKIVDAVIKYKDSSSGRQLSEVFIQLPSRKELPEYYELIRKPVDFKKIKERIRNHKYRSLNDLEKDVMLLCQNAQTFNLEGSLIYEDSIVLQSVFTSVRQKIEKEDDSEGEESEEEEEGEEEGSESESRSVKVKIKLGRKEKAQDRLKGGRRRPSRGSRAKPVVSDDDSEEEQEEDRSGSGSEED

`C[C@@H]1CN(c2cccc(-c3csc(NC(=O)CNC(=O)c4cc(C(C)(C)CO)ccc4F)n3)n2)C[C@H](C)O1` [Compound 145, N-[2-[[4-[6-[(cis)-2,6-dimethylmorpholin-4-yl]-2-pyridyl]thiazol-2-yl]amino]-2-oxo-ethyl]-2-fluoro-5-(2-hydroxy-1,1-dimethyl-ethyl)benzamide] was tested, and the “BRM Max % Inhibition” value [1] was over 90%, the IC50 [1] was 0.1 to 1 µM and the IC50 [2] was 1 to 5 µM. For the same compound, the Emax [2] was over 60%.

For `C[C@]1(CO)CCc2ccc(C(=O)NCC(=O)Nc3nc(-c4cccc(-c5cccnc5O)n4)cs3)cc21` [Compound 191, (S)-N-(2-((4-(2′-hydroxy-[2,3′-bipyridin]-6-yl)thiazol-2-yl)amino)-2-oxoethyl)-3-(hydroxymethyl)-3-methyl-2,3-dihydro-1H-indene-5-carboxamide], the “BRM Max % Inhibition” value [1] was over 90%, the IC50 [1] was 0.1 to 1 µM and the IC50 [2] was 0.1 to 1 µM. The Emax [2] was over 80%.

With `CC(C)(CN)c1cccc(C(=O)NCC(=O)Nc2nc(-c3cccc(-c4cc(C#N)cc(C#N)c4)c3)cs2)c1` [Compound 50, 3-(1-amino-2-methylpropan-2-yl)-N-(2-((4-(3′,5′-dicyano-[1,1′-biphenyl]-3-yl)thiazol-2-yl)amino)-2-oxoethyl)benzamide] the “BRM Max % Inhibition” value [1] was over 90%, the IC50 [1] was 0.1 to 1 µM and the IC50 [2] was 1 to 5 µM. It also gave an Emax [2] of over 70%.

For `CC(C)(C)c1cccc(C(=O)NCC(=O)Nc2nc(-c3cccc(N4CCC4)c3)cs2)c1` [Compound 196, N-(2-((4-(3-(azetidin-1-yl)phenyl)thiazol-2-yl)amino)-2-oxoethyl)-3-(tert-butyl)benzamide], the “BRM Max % Inhibition” value [1] was over 90%, the IC50 [1] was 0.1 to 1 µM and the IC50 [2] was 1 to 5 µM. The Emax [2] was over 60%.

In the case of `CC1CCN1c1cccc(-c2csc(NC(=O)CNC(=O)c3ccc4c(c3)[C@](C)(C#N)COC4)n2)c1` (stereo partly drawn) [Compound 351, (4R)-4-cyano-4-methyl-N-(2-((4-(3-(2-methylazetidin-1-yl)phenyl)thiazol-2-yl)amino)-2-oxoethyl)isochromane-6-carboxamide], the “BRM Max % Inhibition” value [1] is reported as over 95%, the IC50 [1] is reported as under 0.1 µM and the IC50 [2] is reported as under 0.1 µM. It also gave an Emax [2] of over 95%.

For `CN1CCc2ccc(-c3csc(NC(=O)CNC(=O)c4ccc5c(c4)C(C)(CO)CC5)n3)cc2C1=O` (stereo in doubt) [Compound 176, (R)-3-(hydroxymethyl)-3-methyl-N-(2-((4-(2-methyl-1-oxo-1,2,3,4-tetrahydroisoquinolin-7-yl)thiazol-2-yl)amino)-2-oxoethyl)-2,3-dihydro-1H-indene-5-carboxamide], the “BRM Max % Inhibition” value [1] was over 95%, the IC50 [1] was 0.1 to 1 µM and the IC50 [2] was 0.1 to 1 µM. For the same compound, the Emax [2] was over 80%.

With `COc1cccc(-c2csc(NC(=O)CNC(=O)c3ccc4c(c3)[C@](C)(C#N)COC4)n2)n1` [Compound 397, (R)-4-cyano-N-(2-((4-(6-methoxypyridin-2-yl)thiazol-2-yl)amino)-2-oxoethyl)-4-methylisochromane-6-carboxamide] the “BRM Max % Inhibition” value [1] was over 95%, the IC50 [1] was under 0.1 µM and the IC50 [2] was 0.1 to 1 µM. It also gave an Emax [2] of over 95%.

For `C[C@@H]1CN(c2cccc(-c3csc(NC(=O)CNC(=O)c4ccc5c(c4)[C@@](C)(F)COC5)n3)n2)C[C@H](C)O1` [Compound 412, (R)-N-(2-((4-(6-((cis)-2,6-dimethylmorpholino)pyridin-2-yl)thiazol-2-yl)amino)-2-oxoethyl)-4-fluoro-4-methylisochromane-6-carboxamide], the “BRM Max % Inhibition” value [1] was over 90%, the IC50 [1] was 0.1 to 1 µM and the IC50 [2] was 0.1 to 1 µM. For the same compound, the Emax [2] was over 90%.

For `C[C@@H]1CN(c2cccc(-c3csc(NC(=O)CNC(=O)c4ccc5c(c4)C4(CC4)COC5)n3)n2)C[C@H](C)O1` [Compound 406, N-(2-((4-(6-((cis)-2,6-dimethylmorpholino)pyridin-2-yl)thiazol-2-yl)amino)-2-oxoethyl)spiro[cyclopropane-1,4′-isochromane]-6′-carboxamide], the “BRM Max % Inhibition” value [1] was over 95%, the IC50 [1] was under 0.1 µM and the IC50 [2] was 0.1 to 1 µM. For the same compound, the Emax [2] was over 95%.

In the case of `Cc1ccc(C(=O)NCC(=O)Nc2nc(-c3cccc(N4C[C@@H](C)O[C@@H](C)C4)n3)cs2)cc1C(C)(C)CO` [Compound 237, N-(2-((4-(6-((cis)-2,6-dimethylmorpholino)pyridin-2-yl)thiazol-2-yl)amino)-2-oxoethyl)-3-(1-hydroxy-2-methylpropan-2-yl)-4-methylbenzamide], the “BRM Max % Inhibition” value [1] is reported as over 95%, the IC50 [1] is reported as under 0.1 µM and the IC50 [2] is reported as 0.1 to 1 µM. The Emax [2] was over 90%.

`Cc1cc(-c2cccc(-c3csc(NC(=O)CNC(=O)c4ccc5c(c4)[C@](C)(CN)CCC5)n3)c2)cc(C)n1` [Compound 225, (4R)-4-(aminomethyl)-N-[2-[[4-[3-(2,6-dimethyl-4-pyridyl)phenyl]thiazol-2-yl]amino]-2-oxo-ethyl]-4-methyl-tetralin-6-carboxamide] was tested, and the “BRM Max % Inhibition” value [1] was over 80%, the IC50 [1] was 0.1 to 1 µM and the IC50 [2] was over 5 µM. It also gave an Emax [2] of over 40%.

In the case of `CC1(C#N)CCOc2ccc(C(=O)NCC(=O)Nc3nc(-c4cccc([C@H]5CC5(F)F)n4)cs3)cc21` (stereo in doubt) [Compound 378, (S)-4-cyano-N-(2-((4-(6-((R)-2,2-difluorocyclopropyl)pyridin-2-yl)thiazol-2-yl)amino)-2-oxoethyl)-4-methylchromane-6-carboxamide], the “BRM Max % Inhibition” value [1] is reported as over 95%, the IC50 [1] is reported as 0.1 to 1 µM and the IC50 [2] is reported as 1 to 5 µM. For the same compound, the Emax [2] was over 95%.

With `CC(C)(CO)c1cccc(C(=O)NCC(=O)Nc2nc(-c3cccc(-c4ccncc4)c3)cs2)c1` [Compound 73, 3-(1-hydroxy-2-methylpropan-2-yl)-N-(2-oxo-2-((4-(3-(pyridin-4-yl)phenyl)thiazol-2-yl)amino)ethyl)benzamide] the “BRM Max % Inhibition” value [1] was over 95%, the IC50 [1] was under 0.1 µM and the IC50 [2] was 0.1 to 1 µM. It also gave an Emax [2] of over 80%.

In the case of `CC1(C#N)CCOc2ccc(C(=O)NCC(=O)Nc3nc(-c4cccc(C5COC5)c4)cs3)cc21` (stereo in doubt) [Compound 423, (S)-4-cyano-4-methyl-N-(2-((4-(3-(oxetan-3-yl)phenyl)thiazol-2-yl)amino)-2-oxoethyl)chromane-6-carboxamide], the “BRM Max % Inhibition” value ([1]; 30 nM BRM, 400 μM ATP) is reported as over 95%, the IC50 ([1]; 30 nM BRM, 400 μM ATP) is reported as under 0.1 µM and the IC50 ([2]; 30 nM BRG-1, 400 μM ATP) is reported as 0.1 to 1 µM. It also gave an Emax ([2]; 30 nM BRG-1, 400 μM ATP) of over 95%.

In the case of `Cc1cc(C(=O)NCC(=O)Nc2nc(-c3cccc(-c4ccncc4)c3)cs2)cc(C(C)(C)C#N)c1C` [Compound 75, 3-(2-cyanopropan-2-yl)-4,5-dimethyl-N-(2-oxo-2-((4-(3-(pyridin-4-yl)phenyl)thiazol-2-yl)amino)ethyl)benzamide], the “BRM Max % Inhibition” value [1] is reported as over 80%, the IC50 [1] is reported as 0.1 to 1 µM and the IC50 [2] is reported as over 5 µM. The Emax [2] was under 30%.

`Cc1cc(C(=O)NCC(=O)Nc2nc(-c3cccc(-c4ccncc4)c3)cs2)cc(S(=O)(=O)C(C)C)c1` [Compound 20, 3-(isopropylsulfonyl)-5-methyl-N-(2-oxo-2-((4-(3-(pyridin-4-yl)phenyl)thiazol-2-yl)amino)ethyl)benzamide] was tested, and the “BRM Max % Inhibition” value [1] was over 60%, the IC50 [1] was 0.1 to 1 µM and the IC50 [2] was over 5 µM. It also gave an Emax [2] of under 30%.

With `CC(C)(CN)c1cccc(C(=O)NCC(=O)Nc2nc(-c3cccc(-c4cccc(Cl)c4)c3)cs2)c1` [Compound 54, 3-(1-amino-2-methylpropan-2-yl)-N-(2-((4-(3′-chloro-[1,1′-biphenyl]-3-yl)thiazol-2-yl)amino)-2-oxoethyl)benzamide] the “BRM Max % Inhibition” value [1] was over 80%, the IC50 [1] was 1 to 5 µM and the IC50 [2] was 1 to 5 µM. It also gave an Emax [2] of over 50%.

For `C[C@@H]1CN(c2cccc(-c3csc(NC(=O)CNC(=O)c4ccc5c(c4)C(F)(C(F)F)COC5)n3)c2)C[C@H](C)O1` (stereo partly drawn) [Compound 329, 4-(difluoromethyl)-N-(2-((4-(3-((cis)-2,6-dimethylmorpholino)phenyl)thiazol-2-yl)amino)-2-oxoethyl)-4-fluoroisochromane-6-carboxamide], the “BRM Max % Inhibition” value [1] was over 95%, the IC50 [1] was under 0.1 µM and the IC50 [2] was under 0.1 µM. For the same compound, the Emax [2] was over 95%.

In the case of `C[C@@H]1CN(c2cccc(-c3csc(NC(=O)CNC(=O)c4ccc5c(c4)C(F)(C(F)F)COC5)n3)c2)C[C@H](C)O1` (stereo in doubt) [Compound 308, (S)-4-(difluoromethyl)-N-(2-((4-(3-((cis)-2,6-dimethylmorpholino)phenyl)thiazol-2-yl)amino)-2-oxoethyl)-4-fluoroisochromane-6-carboxamide], the “BRM Max % Inhibition” value [1] is reported as over 95%, the IC50 [1] is reported as under 0.1 µM and the IC50 [2] is reported as under 0.1 µM. It also gave an Emax [2] of over 95%.

In the case of `C[C@@]1(C#N)COCc2ccc(C(=O)NCC(=O)Nc3nc(-c4cccc([C@]56CCOC[C@H]5C6)n4)cs3)cc21` [Compound 293, (R)-N-(2-((4-(6-((1S,6R)-3-oxabicyclo[4.1.0]heptan-6-yl)pyridin-2-yl)thiazol-2-yl)amino)-2-oxoethyl)-4-cyano-4-methylisochromane-6-carboxamide], the “BRM Max % Inhibition” value [1] is reported as over 95%, the IC50 [1] is reported as under 0.1 µM and the IC50 [2] is reported as 0.1 to 1 µM. The Emax [2] was over 95%.

`COc1cccc(-c2csc(NC(=O)CNC(=O)c3ccc4c(c3)[C@](C)(C#N)COC4)n2)c1` [Compound 401, (R)-4-cyano-N-(2-((4-(3-methoxyphenyl)thiazol-2-yl)amino)-2-oxoethyl)-4-methylisochromane-6-carboxamide] was tested, and the “BRM Max % Inhibition” value [1] was over 95%, the IC50 [1] was under 0.1 µM and the IC50 [2] was 0.1 to 1 µM. The Emax [2] was over 95%.

In the case of `C[C@@H]1CN(c2cccc(-c3csc(NC(=O)CNC(=O)c4cccc(C5(C(F)F)CCCO5)c4)n3)c2)C[C@H](C)O1` (stereo partly drawn) [Compound 306, 3-(2-(difluoromethyl)tetrahydrofuran-2-yl)-N-(2-((4-(3-((cis)-2,6-dimethylmorpholino)phenyl)thiazol-2-yl)amino)-2-oxoethyl)benzamide], the “BRM Max % Inhibition” value [1] is reported as over 95%, the IC50 [1] is reported as 0.1 to 1 µM and the IC50 [2] is reported as 1 to 5 µM. For the same compound, the Emax [2] was over 95%.

From patent US12685735B2 (Foghorn Therapeutics Inc., priority 2020, dated 2026)
